The values that follow come from ChEMBL document CHEMBL5329205, “Development of novel quinoline-NO donor hybrids inducing human breast cancer cells apoptosis via inhibition of topoisomerase I” (Bioorg Med Chem, 2023).

Data set [1] can be described thus: Toxicity in BALB/c mouse xenografted with human MCF7 cells assessed as heart damage at 10 mg/kg, ip administered once every two days for 3 weeks by H and E staining based microscopic analysis. In kind it is organism-based. Particulars: in vivo, 504 h. (In general: A xenograft is tissue or cells of one species grown in another, often human tumour cells in immunodeficient mice.)

Data set [2] has as its system MCF7. Nature of the data set: Induction of apoptosis in human MCF7 cells assessed as necrotic cells at 0.75 uM incubated for 48 hrs by Annexin-V/PI staining based flow cytometry analysis (reference value: 0.0%). The data set is classed as functional. For orientation: A flow cytometer gives signals particle by particle.
Data set [3] can be described thus: Toxicity in BALB/c nude mouse xenografted with human MCF7 cells assessed as heart damage at 5 mg/kg, ip administered once every two days for 3 weeks by H and E staining based microscopic analysis. Particulars: in vivo, 504 h; call rule not given here. The data set is classed as organism-based.
For data set [4], the target named is ATP-dependent translocase ABCB1 (Homo sapiens, UniProt P08183). As to the kind of experiment: Inhibition of P-glycoprotein mediated Rhodamine-123 transport in human MCF7ADR cells assessed as increase in fluorescence index of rhodamine-123 at 1.5 to 3 uM incubated for 24 hrs by flow cytometry analysis. In kind it is cell-based. Particulars: dose 1.5-3 µM.
Sequence of ATP-dependent translocase ABCB1 (P08183 whole entry): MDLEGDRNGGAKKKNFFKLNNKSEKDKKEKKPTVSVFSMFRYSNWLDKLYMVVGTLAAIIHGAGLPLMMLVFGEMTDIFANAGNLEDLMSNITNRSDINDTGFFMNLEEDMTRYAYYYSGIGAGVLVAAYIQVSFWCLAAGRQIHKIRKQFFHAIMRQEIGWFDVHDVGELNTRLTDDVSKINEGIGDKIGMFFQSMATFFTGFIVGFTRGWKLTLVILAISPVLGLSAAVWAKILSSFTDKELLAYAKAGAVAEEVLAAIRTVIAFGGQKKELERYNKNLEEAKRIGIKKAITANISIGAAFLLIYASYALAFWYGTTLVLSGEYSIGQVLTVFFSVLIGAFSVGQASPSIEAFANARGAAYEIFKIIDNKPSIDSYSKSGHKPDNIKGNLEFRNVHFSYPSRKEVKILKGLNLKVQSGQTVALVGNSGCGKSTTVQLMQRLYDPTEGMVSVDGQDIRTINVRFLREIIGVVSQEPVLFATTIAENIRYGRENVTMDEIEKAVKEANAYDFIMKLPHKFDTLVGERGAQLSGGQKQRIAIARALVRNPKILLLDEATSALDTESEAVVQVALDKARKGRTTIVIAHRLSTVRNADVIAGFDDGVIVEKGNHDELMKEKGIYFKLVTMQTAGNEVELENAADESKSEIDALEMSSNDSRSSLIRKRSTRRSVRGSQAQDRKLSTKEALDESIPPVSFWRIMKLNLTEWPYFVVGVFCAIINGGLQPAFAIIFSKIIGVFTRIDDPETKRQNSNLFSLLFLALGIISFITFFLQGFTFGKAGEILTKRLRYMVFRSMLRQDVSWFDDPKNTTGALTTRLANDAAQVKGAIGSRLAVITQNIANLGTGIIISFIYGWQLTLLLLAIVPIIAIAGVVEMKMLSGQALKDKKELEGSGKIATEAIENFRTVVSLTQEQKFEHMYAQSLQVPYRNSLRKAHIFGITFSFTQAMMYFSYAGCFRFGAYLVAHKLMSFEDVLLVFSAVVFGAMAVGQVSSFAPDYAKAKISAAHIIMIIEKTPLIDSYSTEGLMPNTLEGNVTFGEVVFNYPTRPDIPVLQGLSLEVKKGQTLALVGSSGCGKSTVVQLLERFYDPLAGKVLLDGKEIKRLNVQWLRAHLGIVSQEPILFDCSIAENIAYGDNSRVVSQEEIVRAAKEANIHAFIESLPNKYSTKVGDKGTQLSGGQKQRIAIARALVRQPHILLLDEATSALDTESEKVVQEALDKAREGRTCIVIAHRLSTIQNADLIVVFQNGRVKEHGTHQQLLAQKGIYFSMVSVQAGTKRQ
The subject of data set [5] is MCF7. As to the kind of experiment: Induction of apoptosis in human MCF7 cells assessed as upregulation of cleaved-PARP expression incubated for 24 hrs by Western blot analysis. Particulars: dose 1-4 µM. The data set is classed as functional, cell-based. Background: A western blot detects proteins with antibodies after separation by electrophoresis.
Data set [6] has as its target T1, DNA topoisomerase 1 (Homo sapiens) (UniProt P11387).
T1 sequence (whole entry): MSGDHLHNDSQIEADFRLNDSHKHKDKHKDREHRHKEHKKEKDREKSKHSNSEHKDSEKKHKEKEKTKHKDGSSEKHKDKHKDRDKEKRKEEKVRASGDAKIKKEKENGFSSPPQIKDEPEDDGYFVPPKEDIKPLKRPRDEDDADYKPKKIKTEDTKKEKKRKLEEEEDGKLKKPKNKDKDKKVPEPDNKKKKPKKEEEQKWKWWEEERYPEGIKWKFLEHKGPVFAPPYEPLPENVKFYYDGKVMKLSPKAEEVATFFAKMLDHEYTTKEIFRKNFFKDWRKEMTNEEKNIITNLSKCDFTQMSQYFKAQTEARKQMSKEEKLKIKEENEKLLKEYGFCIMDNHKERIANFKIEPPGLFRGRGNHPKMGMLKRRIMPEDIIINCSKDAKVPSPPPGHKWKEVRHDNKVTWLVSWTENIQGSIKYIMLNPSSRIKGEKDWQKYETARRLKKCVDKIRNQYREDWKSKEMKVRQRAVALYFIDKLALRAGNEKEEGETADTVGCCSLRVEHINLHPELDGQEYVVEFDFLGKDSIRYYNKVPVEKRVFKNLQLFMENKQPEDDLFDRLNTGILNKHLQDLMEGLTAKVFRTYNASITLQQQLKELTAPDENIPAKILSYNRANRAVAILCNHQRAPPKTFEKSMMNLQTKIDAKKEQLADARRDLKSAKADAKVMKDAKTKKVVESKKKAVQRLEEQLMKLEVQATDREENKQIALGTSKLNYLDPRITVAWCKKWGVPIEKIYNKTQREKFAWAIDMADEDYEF
Nature of the data set: Inhibition of human DNA topoisomerase I mediated supercoiled DNA relaxation activity incubated for 30 mins by Ged Red staining based agarose gel electrophoresis analysis. Particulars: dose 20-100 µM.

Data set [7] relates to MCF7. As to the kind of experiment: Induction of apoptosis in human MCF7 cells assessed as total apoptotic cells at 0.75 to 3 uM incubated for 48 hrs by Annexin-V/PI staining based flow cytometry analysis (reference value: 0.3 %). The data set is classed as functional. Particulars: dose 0.75-3 µM.
Data set [8] is described as follows: Toxicity in BALB/c mouse xenografted with human MCF7 cells assessed as spleen damage at 10 mg/kg, ip administered once every two days for 3 weeks by H and E staining based microscopic analysis. In kind it is organism-based. Particulars: in vivo, 504 h.
In data set [9] the test system is MCF7. Nature of the data set: Induction of apoptosis in human MCF7 cells assessed as early apoptotic cells at 0.75 uM incubated for 48 hrs by Annexin-V/PI staining based flow cytometry analysis (reference value: 0.3%). The data set is classed as functional.
Data set [10] deals with MCF7. As to the kind of experiment: Induction of apoptosis in human MCF7 cells assessed as viable cells at 3 uM incubated for 48 hrs by Annexin-V/PI staining based flow cytometry analysis (reference value: 99.7%). In kind it is functional. Particulars: read-out: Activity.
Data set [11] in a line: Toxicity in BALB/c mouse xenografted with human MCF7 cells assessed as kidney damage at 10 mg/kg, ip administered once every two days for 3 weeks by H and E staining based microscopic analysis. The data set is classed as organism-based. Particulars: in vivo, 504 h.
For data set [12], the system named is MCF7. Nature of the data set: Induction of apoptosis in human MCF7 cells assessed as late apoptotic cells at 3 uM incubated for 48 hrs by Annexin-V/PI FITC staining based flow cytometry analysis (reference value: 0.0%). In kind it is functional.
Data set [13] in a line: Toxicity in BALB/c mouse xenografted with human MCF7 cells assessed as lung damage at 10 mg/kg, ip administered once every two days for 3 weeks by H and E staining based microscopic analysis. The data set is classed as organism-based. Particulars: in vivo, 504 h.
Data set [14] concerns MCF7. Nature of the data set: Induction of apoptosis in human MCF7 cells assessed as late apoptotic cells at 0.75 uM incubated for 48 hrs by Annexin-V/PI staining based flow cytometry analysis (reference value: 0.0%). In kind it is functional.

As for `COc1cc(-c2cc(C(=O)OCCCCCOc3no[n+]([O-])c3S(=O)(=O)c3ccccc3)c3ccccc3n2)cc(OC)c1OC`, the Activity result was “Non-Toxic” in [1]; 3% in [2]; “Non-Toxic” in data set [3]; “Dose-Dependent Effect” in [5]; 64.3% in data set [7]; “Non-Toxic” in data set [8]. The Activity was 11.9% in data set [9]; “Non-Toxic” in data set [11]; 50% in data set [12]; “Non-Toxic” in [13]; 18% in [14]. The “inhibition (INH)” value in data set [4] is “Active”. For the same compound, the inhibition result in data set [6] was “Dose-Dependent Effect”. In data set [10], the viability at 3 µM is 34.4%.
